# Experimental data reported in patent US20090111801A1, “SUBSTITUTED PYRAZINONE DERIVATIVES FOR USE AS A MEDICINE” (Janssen Pharmaceutica N.V., priority 2006, published 2009).
# How the values were obtained:
# [1] = biological target: T1, hα2C receptor (Homo sapiens, UniProt P18825); assay: Radioligand binding experiment for α2C-adrenoceptor ([3H]raulwolscine, CHO cell membranes); conditions: [3H]raulwolscine binding; for IC50: read-out: h-α2C pIC50 (converted)
# T1 construct: expressed in transfected cells; host or cells: CHO cells, stably transfected; membrane preparation
# T1 sequence (P18825 1-462): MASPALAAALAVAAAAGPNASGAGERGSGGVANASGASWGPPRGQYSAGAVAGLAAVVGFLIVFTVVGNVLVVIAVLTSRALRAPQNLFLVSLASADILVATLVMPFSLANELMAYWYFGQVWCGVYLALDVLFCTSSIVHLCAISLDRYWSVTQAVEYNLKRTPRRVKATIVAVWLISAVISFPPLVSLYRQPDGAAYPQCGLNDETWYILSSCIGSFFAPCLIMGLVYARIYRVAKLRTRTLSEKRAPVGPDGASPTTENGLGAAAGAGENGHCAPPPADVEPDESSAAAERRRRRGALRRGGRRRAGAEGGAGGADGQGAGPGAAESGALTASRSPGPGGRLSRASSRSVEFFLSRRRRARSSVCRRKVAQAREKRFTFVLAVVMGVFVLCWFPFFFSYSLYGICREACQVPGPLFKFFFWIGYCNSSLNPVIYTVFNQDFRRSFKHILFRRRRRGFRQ
# [2] = biological target: T2, 5HT-Transporter (Homo sapiens, UniProt P31645); assay: Binding experiment for the 5HT-transporter ([3H]paroxetine, human platelet membranes); conditions: [3H]paroxetine 0.5 nM; for IC50: read-out: h-5HTT pIC50 (converted)
# T2 construct: Human platelet membranes (Oceanix Biosciences Corporation, Hanover, Md., USA) were thawed; tissue Oceanix Biosciences Corporation, Hanover, Md., USA; host or cells: human platelet membranes
# T2 sequence (P31645 whole entry): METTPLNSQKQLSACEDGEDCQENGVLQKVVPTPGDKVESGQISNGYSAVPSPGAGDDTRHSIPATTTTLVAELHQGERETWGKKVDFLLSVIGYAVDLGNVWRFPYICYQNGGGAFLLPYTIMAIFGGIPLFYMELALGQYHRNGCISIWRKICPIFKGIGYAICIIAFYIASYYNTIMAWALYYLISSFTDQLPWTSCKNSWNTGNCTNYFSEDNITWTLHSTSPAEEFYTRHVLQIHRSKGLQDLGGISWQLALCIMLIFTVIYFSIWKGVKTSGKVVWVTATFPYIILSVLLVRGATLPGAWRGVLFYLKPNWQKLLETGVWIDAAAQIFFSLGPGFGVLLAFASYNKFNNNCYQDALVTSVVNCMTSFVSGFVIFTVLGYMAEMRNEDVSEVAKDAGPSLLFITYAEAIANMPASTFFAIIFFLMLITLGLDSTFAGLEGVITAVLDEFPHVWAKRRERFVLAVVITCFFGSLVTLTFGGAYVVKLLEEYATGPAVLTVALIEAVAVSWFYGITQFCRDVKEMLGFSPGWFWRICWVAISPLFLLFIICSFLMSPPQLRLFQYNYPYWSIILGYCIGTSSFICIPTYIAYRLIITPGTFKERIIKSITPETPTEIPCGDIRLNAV
# How it was run: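 Filter-bound radioactivity from human platelet membranes incubated with [3H]paroxetine and test compound (buffer Tris-HCl 50 mM, 120 mM NaCl, 5 mM KCl) was counted.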
# [3] = biological target: T3, hα2A receptor (Homo sapiens, UniProt P08913); assay: Radioligand binding experiment for α2A-adrenoceptor ([3H]raulwolscine, CHO cell membranes); conditions: [3H]raulwolscine binding; for IC50: read-out: h-α2A pIC50 (converted)
# T3 construct: expressed in transfected cells; host or cells: CHO cells, stably transfected; membrane preparation
# T3 sequence (P08913 1-465): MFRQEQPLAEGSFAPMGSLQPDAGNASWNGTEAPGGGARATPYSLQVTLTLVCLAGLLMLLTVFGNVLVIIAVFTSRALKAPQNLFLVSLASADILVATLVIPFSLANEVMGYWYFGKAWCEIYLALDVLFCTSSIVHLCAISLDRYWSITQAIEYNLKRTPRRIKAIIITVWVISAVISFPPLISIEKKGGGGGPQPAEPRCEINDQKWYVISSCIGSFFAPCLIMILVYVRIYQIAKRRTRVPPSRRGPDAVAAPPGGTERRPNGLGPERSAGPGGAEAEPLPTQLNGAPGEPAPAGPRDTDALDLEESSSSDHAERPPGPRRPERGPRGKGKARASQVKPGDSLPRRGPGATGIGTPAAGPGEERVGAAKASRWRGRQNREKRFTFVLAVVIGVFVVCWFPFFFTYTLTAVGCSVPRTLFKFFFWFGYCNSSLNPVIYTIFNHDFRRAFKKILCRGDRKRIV
h-α2C pIC50 [1],h-5HTT pIC50 [2],h-α2A pIC50 [3],IC50 [1] [nM],IC50 [2] [nM],IC50 [3] [nM],Structure (SMILES)
8.0,5.5,7.3,–,–,–,CCOC(=O)N1CCC(NCc2cccc(-n3ccnc(NC4CCN(C/C(C)=C/c5ccccc5)CC4)c3=O)c2)CC1 [1-127]
7.9,5.9,7.0,–,–,–,CCOC(=O)N1CCC(NCc2ccc(-n3ccnc(NC4CCN(C/C(C)=C/c5ccccc5)CC4)c3=O)cc2)CC1 [1-128]
–,–,–,25.1,501,63.1,C/C(=C\c1ccccc1)CN1CCC(Nc2nccn(-c3ccc(C(=O)NC4CCN(Cc5ccccc5)CC4)cc3)c2=O)CC1 [1-129]
8.8,6.7,8.2,–,–,–,C/C(=C\c1ccccc1)CN1CCC(Nc2nccn(-c3cccc(CNCCN4CCCC4)c3)c2=O)CC1 [1-130]
–,–,–,3.16,158,25.1,C/C(=C\c1ccccc1)CN1CCC(Nc2nccn(-c3ccc(CNCCN4CCCC4)cc3)c2=O)CC1 [1-131]
–,–,–,12.6,2510,316,C/C(=C\c1ccccc1)CN1CCC(Nc2nccn(CC(=O)NCCCN3CCCC3=O)c2=O)CC1 [1-132]
8.7,5.6,7.5,–,–,–,C/C(=C\c1ccccc1)CN1CCC(Nc2nccn(-c3cccc(CNCCCN4CCCC4=O)c3)c2=O)CC1 [1-133]
–,–,–,1.58,501,12.6,C/C(=C\c1ccccc1)CN1CCC(Nc2nccn(CC(=O)N(CCN3CCCC3)CC3CCCCC3)c2=O)CC1 [1-134]
–,–,–,0.794,794,12.6,C/C(=C\c1ccccc1)CN1CCC(Nc2nccn(CC(=O)N(CCN3CCCC3)Cc3ccccc3)c2=O)CC1 [1-135]
–,–,–,0.316,631,10,C/C(=C\c1ccccc1)CN1CCC(Nc2nccn(CC(=O)N(CCN3CCCC3)Cc3ccc(F)cc3)c2=O)CC1 [1-136]
–,–,–,0.794,1000,12.6,C/C(=C\c1ccccc1)CN1CCC(Nc2nccn(CC(=O)N(CCCN3CCCC3)Cc3ccc(F)cc3)c2=O)CC1 [1-137]
–,–,–,0.794,1260,7.94,C/C(=C\c1ccccc1)CN1CCC(Nc2nccn(CC(=O)N(CCN3CCCC3C)Cc3ccc(F)cc3)c2=O)CC1 (stereo not drawn) [1-138]
–,–,–,3.16,2510,200,C/C(=C\c1ccccc1)CN1CCC(Nc2nccn(CC(=O)N(CCCN3CCCC3=O)Cc3ccc(F)cc3)c2=O)CC1 [1-139]
–,–,–,3.98,200,39.8,C/C(=C\c1ccccc1)CN1CCC(Nc2nccn(-c3ccc(C(=O)NCCN4CCCCC4)cc3)c2=O)CC1 [1-140]
–,–,–,6.31,1580,100,C/C(=C\c1ccccc1)CN1CCC(Nc2nccn(CC(=O)NCc3cccnc3)c2=O)CC1 [1-141]
–,–,–,3.16,1000,158,CCN(Cc1ccncc1)C(=O)Cn1ccnc(NC2CCN(C/C(C)=C/c3ccccc3)CC2)c1=O [1-142]
–,–,–,3.16,2000,79.4,C/C(=C\c1ccccc1)CN1CCC(Nc2nccn(CC(=O)N(CCCn3ccnc3)Cc3ccc(F)cc3)c2=O)CC1 [1-143]
–,–,–,6.31,3160,158,C/C(=C\c1ccccc1)CN1CCC(Nc2nccn(CC(=O)NCC3CCCO3)c2=O)CC1 (stereo not drawn) [1-144]
–,–,–,1.26,794,20,C/C(=C\c1ccccc1)CN1CCC(Nc2nccn(-c3cccc(CNCC4CCCO4)c3)c2=O)CC1 (stereo not drawn) [1-145]
8.6,6.3,7.0,–,–,–,C/C(=C\c1ccccc1)CN1CCC(Nc2nccn(-c3ccc(CNCC4CCCO4)cc3)c2=O)CC1 (stereo not drawn) [1-146]
–,–,–,3.16,3160,50.1,C/C(=C\c1ccccc1)CN1CCC(Nc2nccn(CC(=O)NCc3ccco3)c2=O)CC1 [1-147]
–,–,–,7.94,1260,251,C/C(=C\c1ccccc1)CN1CCC(Nc2nccn(CC(=O)NCCN3CCOCC3)c2=O)CC1 [1-148]

h-α2C pIC50 [1],h-5HTT pIC50 [2],h-α2A pIC50 [3],IC50 [1] [nM],IC50 [2] [nM],IC50 [3] [nM],Structure (SMILES)
8.4,5.5,7.6,–,–,–,C/C(=C\c1ccccc1)CN1CCC(Nc2nccn(-c3cccc(CNCCN4CCOCC4)c3)c2=O)CC1 [1-149]
–,–,–,3.98,794,100,C/C(=C\c1ccccc1)CN1CCC(Nc2nccn(-c3ccc(CNCCN4CCOCC4)cc3)c2=O)CC1 [1-150]
–,–,–,2,1260,126,C/C(=C\c1ccccc1)CN1CCC(Nc2nccn(CC(=O)N(CCN3CCOCC3)Cc3ccc(F)cc3)c2=O)CC1 [1-151]
8.9,6.1,6.9,–,–,–,C/C(=C\c1ccccc1)CN1CCC(Nc2nccn(-c3ccc(CNC(=O)c4ccno4)cc3)c2=O)CC1 [1-153]
–,–,–,39.8,398,126,C/C(=C\c1ccccc1)CN1CCC(Nc2nccn(Cc3ccc(CNC(=O)c4ccncc4)cc3)c2=O)CC1 [1-154]
–,–,–,20,1260,200,C/C(=C\c1ccccc1)CN1CCC(Nc2nccn(CCCNS(C)(=O)=O)c2=O)CC1 [1-155]
–,–,–,31.6,1260,158,C/C(=C\c1ccccc1)CN1CCC(Nc2nccn(Cc3ccc(CNS(C)(=O)=O)cc3)c2=O)CC1 [1-156]
–,–,–,50.1,1000,251,CCCCS(=O)(=O)NCc1ccc(Cn2ccnc(NC3CCN(C/C(C)=C/c4ccccc4)CC3)c2=O)cc1 [1-157]
–,–,–,6.31,158,100,C/C(=C\c1ccccc1)CN1CCC(Nc2nccn(CCCNS(=O)(=O)c3ccccc3)c2=O)CC1 [1-158]
–,–,–,12.6,501,158,C/C(=C\c1ccccc1)CN1CCC(Nc2nccn(CCCN(C)S(=O)(=O)c3ccccc3)c2=O)CC1 [1-160]
–,–,–,25.1,501,100,C/C(=C\c1ccccc1)CN1CCC(Nc2nccn(Cc3ccc(CNS(=O)(=O)c4ccc(C#N)cc4)cc3)c2=O)CC1 [1-161]
–,–,–,20,316,100,C/C(=C\c1ccccc1)CN1CCC(Nc2nccn(Cc3ccc(CNS(=O)(=O)c4ccc(F)cc4)cc3)c2=O)CC1 [1-162]
–,–,–,39.8,794,158,C/C(=C\c1ccccc1)CN1CCC(Nc2nccn(Cc3ccc(CNS(=O)(=O)c4ccc(C(F)(F)F)cc4)cc3)c2=O)CC1 [1-163]
–,–,–,20,501,158,CC(=O)Nc1ccc(S(=O)(=O)NCc2ccc(Cn3ccnc(NC4CCN(C/C(C)=C/c5ccccc5)CC4)c3=O)cc2)cc1 [1-164]
–,–,–,12.6,316,63.1,C/C(=C\c1ccccc1)CN1CCC(Nc2nccn(-c3cccc(NS(=O)(=O)Cc4ccccc4)c3)c2=O)CC1 [1-166]
–,–,–,39.8,631,200,C/C(=C\c1ccccc1)CN1CCC(Nc2nccn(Cc3ccc(CNS(=O)(=O)/C=C/c4ccccc4)cc3)c2=O)CC1 [1-167]
–,–,–,10,200,158,C/C(=C\c1ccccc1)CN1CCC(Nc2nccn(CCCN(c3ccccc3)S(=O)(=O)c3ccccc3)c2=O)CC1 [1-168]
–,–,–,10,316,200,C/C(=C\c1ccccc1)CN1CCC(Nc2nccn(CCCN(Cc3ccccc3)S(C)(=O)=O)c2=O)CC1 [1-169]
–,–,–,12.6,251,200,C/C(=C\c1ccccc1)CN1CCC(Nc2nccn(CCCN(Cc3ccccc3)S(=O)(=O)c3ccccc3)c2=O)CC1 [1-170]
–,–,–,20,794,158,C/C(=C\c1ccccc1)CN1CCC(Nc2nccn(Cc3ccc(CNS(=O)(=O)c4c(C)noc4C)cc3)c2=O)CC1 [1-171]
–,–,–,39.8,1260,31.6,C/C(=C\c1ccccc1)CN1CCC(Nc2nccn(CC(=O)c3ccc(N4CCCC4)cc3)c2=O)CC1 [2-1]
